US7964531B2, “3-phenoxy-4-pyridazinol derivatives and herbicidal composition containing the same” (Mitsui Chemicals Agro, Inc., priority 2001, dated 2011)

Columns and labels:
Format in all cases: in vivo
Details in all cases: wettable powder applied 3 days after transplanting, judged after 25 days
Cyperus serotinus = assay: Test Example 1: herbicidal effects, paddy-field pot test
In short: (§1)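 Scores are growth inhibition ratings from 0 (0–10%) to 5 (91–100%), judged 25 days after a water-diluted wettable powder was applied to flooded pots. Treatment followed transplanting of 2.2-leaf rice by 3 days; weeds were seeded at the soil surface or planted as germinated tubers.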

Scirpus joncoides = assay: as above
In short: as §1

[1] = system: annual broad-leaved weeds (Lindernia spp., Rotala indica); assay: as above
In short: as §1

[2] = system: barnyardgrass (Echinochloa oryzicola Vasing.); assay: as above
In short: as §1

[3] = system: transplanted paddy-field rice; assay: Test Example 1: crop injury against transplanted paddy-field rice
In short: as §1

Structure (SMILES)	Herbicidal effects Cyperus serotinus (Cyperus serotinus; chemical dosage 12.5 g/a)	Herbicidal effects Cyperus serotinus (Cyperus serotinus; chemical dosage 25 g/a)	Herbicidal effects Scirpus joncoides (Scirpus joncoides; chemical dosage 12.5 g/a)	Herbicidal effects Scirpus joncoides (Scirpus joncoides; chemical dosage 25 g/a)	Herbicidal effects Broad leaf ([1]; chemical dosage 12.5 g/a)	Herbicidal effects Broad leaf ([1]; chemical dosage 25 g/a)	Herbicidal effects Barnyard grass ([2]; chemical dosage 12.5 g/a)	Herbicidal effects Barnyard grass ([2]; chemical dosage 25 g/a)	Crop injury against transplanted rice ([3]; chemical dosage 12.5 g/a)	Crop injury against transplanted rice ([3]; chemical dosage 25 g/a)	Herbicidal effects Cyperus serotinus (Cyperus serotinus; chemical dosage 10 g/a)	Herbicidal effects Cyperus serotinus (Cyperus serotinus; chemical dosage 20 g/a)	Herbicidal effects Scirpus joncoides (Scirpus joncoides; chemical dosage 10 g/a)	Herbicidal effects Scirpus joncoides (Scirpus joncoides; chemical dosage 20 g/a)	Herbicidal effects Broad leaf ([1]; chemical dosage 10 g/a)	Herbicidal effects Broad leaf ([1]; chemical dosage 20 g/a)	Herbicidal effects Barnyard grass ([2]; chemical dosage 10 g/a)	Herbicidal effects Barnyard grass ([2]; chemical dosage 20 g/a)	Crop injury against transplanted rice ([3]; chemical dosage 10 g/a)	Crop injury against transplanted rice ([3]; chemical dosage 20 g/a)
Cc1cc(C)cc(Oc2nnc(Cl)cc2O)c1 [Example 281]	5 (Growth inhibition rate; 91 to 100%)	5 (Growth inhibition rate; 91 to 100%)	2 (Growth inhibition rate; 31 to 50%)	3 (Growth inhibition rate; 51 to 70%)	5 (Growth inhibition rate; 91 to 100%)	5 (Growth inhibition rate; 91 to 100%)	0 (Growth inhibition rate; 0 to 10%)	0 (Growth inhibition rate; 0 to 10%)	0 (Growth inhibition rate; 0 to 10%)	0 (Growth inhibition rate; 0 to 10%)	–	–	–	–	–	–	–	–	–	–
Cc1cccc(C(C)(C)C)c1Oc1nnc(Cl)cc1O [Example 22]	3 (Growth inhibition rate; 51 to 70%)	4 (Growth inhibition rate; 71 to 90%)	2 (Growth inhibition rate; 31 to 50%)	4 (Growth inhibition rate; 71 to 90%)	5 (Growth inhibition rate; 91 to 100%)	5 (Growth inhibition rate; 91 to 100%)	1 (Growth inhibition rate; 11 to 30%)	2 (Growth inhibition rate; 31 to 50%)	1 (Growth inhibition rate; 11 to 30%)	2 (Growth inhibition rate; 31 to 50%)	–	–	–	–	–	–	–	–	–	–
CCCS(=O)(=O)Oc1cc(Cl)nnc1Oc1ccccc1C [Example 359]	–	–	–	–	–	–	–	–	–	–	5 (Growth inhibition rate; 91 to 100%)	5 (Growth inhibition rate; 91 to 100%)	3 (Growth inhibition rate; 51 to 70%)	4 (Growth inhibition rate; 71 to 90%)	3 (Growth inhibition rate; 51 to 70%)	5 (Growth inhibition rate; 91 to 100%)	4 (Growth inhibition rate; 71 to 90%)	5 (Growth inhibition rate; 91 to 100%)	0 (Growth inhibition rate; 0 to 10%)	0 (Growth inhibition rate; 0 to 10%)
CC(C)(C)c1cccc(C2CC2)c1Oc1nnc(Cl)cc1O [Example 274]	–	–	–	–	–	–	–	–	–	–	4 (Growth inhibition rate; 71 to 90%)	4 (Growth inhibition rate; 71 to 90%)	3 (Growth inhibition rate; 51 to 70%)	4 (Growth inhibition rate; 71 to 90%)	5 (Growth inhibition rate; 91 to 100%)	5 (Growth inhibition rate; 91 to 100%)	3 (Growth inhibition rate; 51 to 70%)	3 (Growth inhibition rate; 51 to 70%)	0 (Growth inhibition rate; 0 to 10%)	0 (Growth inhibition rate; 0 to 10%)
Oc1cc(Cl)nnc1Oc1ccccc1Br [Example 51]	5 (Growth inhibition rate; 91 to 100%)	5 (Growth inhibition rate; 91 to 100%)	3 (Growth inhibition rate; 51 to 70%)	5 (Growth inhibition rate; 91 to 100%)	4 (Growth inhibition rate; 71 to 90%)	5 (Growth inhibition rate; 91 to 100%)	2 (Growth inhibition rate; 31 to 50%)	2 (Growth inhibition rate; 31 to 50%)	0 (Growth inhibition rate; 0 to 10%)	0 (Growth inhibition rate; 0 to 10%)	–	–	–	–	–	–	–	–	–	–
Cc1ccc2c(c1Oc1nnc(Cl)cc1O)CCC2 [Example 305]	–	–	–	–	–	–	–	–	–	–	5 (Growth inhibition rate; 91 to 100%)	–	5 (Growth inhibition rate; 91 to 100%)	–	5 (Growth inhibition rate; 91 to 100%)	–	1 (Growth inhibition rate; 11 to 30%)	–	0 (Growth inhibition rate; 0 to 10%)	–
Oc1cc(Cl)nnc1Oc1ccccc1C1CCCC1 [Example 88]	5 (Growth inhibition rate; 91 to 100%)	5 (Growth inhibition rate; 91 to 100%)	4 (Growth inhibition rate; 71 to 90%)	5 (Growth inhibition rate; 91 to 100%)	4 (Growth inhibition rate; 71 to 90%)	5 (Growth inhibition rate; 91 to 100%)	0 (Growth inhibition rate; 0 to 10%)	0 (Growth inhibition rate; 0 to 10%)	0 (Growth inhibition rate; 0 to 10%)	0 (Growth inhibition rate; 0 to 10%)	–	–	–	–	–	–	–	–	–	–
CC1CC1c1ccccc1Oc1nnc(Cl)cc1O (stereo not shown) [Example 72]	–	–	–	–	–	–	–	–	–	–	4 (Growth inhibition rate; 71 to 90%)	5 (Growth inhibition rate; 91 to 100%)	5 (Growth inhibition rate; 91 to 100%)	5 (Growth inhibition rate; 91 to 100%)	5 (Growth inhibition rate; 91 to 100%)	5 (Growth inhibition rate; 91 to 100%)	3 (Growth inhibition rate; 51 to 70%)	3 (Growth inhibition rate; 51 to 70%)	0 (Growth inhibition rate; 0 to 10%)	0 (Growth inhibition rate; 0 to 10%)
CS(=O)(=O)Oc1cc(Cl)nnc1Oc1ccccc1C1CC1 [Example 357]	–	–	–	–	–	–	–	–	–	–	5 (Growth inhibition rate; 91 to 100%)	5 (Growth inhibition rate; 91 to 100%)	5 (Growth inhibition rate; 91 to 100%)	5 (Growth inhibition rate; 91 to 100%)	5 (Growth inhibition rate; 91 to 100%)	5 (Growth inhibition rate; 91 to 100%)	2 (Growth inhibition rate; 31 to 50%)	3 (Growth inhibition rate; 51 to 70%)	0 (Growth inhibition rate; 0 to 10%)	0 (Growth inhibition rate; 0 to 10%)
Oc1cc(Cl)nnc1Oc1cccc(F)c1F [Example 154]	–	–	–	–	–	–	–	–	–	–	5 (Growth inhibition rate; 91 to 100%)	5 (Growth inhibition rate; 91 to 100%)	3 (Growth inhibition rate; 51 to 70%)	5 (Growth inhibition rate; 91 to 100%)	5 (Growth inhibition rate; 91 to 100%)	5 (Growth inhibition rate; 91 to 100%)	1 (Growth inhibition rate; 11 to 30%)	2 (Growth inhibition rate; 31 to 50%)	0 (Growth inhibition rate; 0 to 10%)	0 (Growth inhibition rate; 0 to 10%)
Cc1coc2cccc(Oc3nnc(Cl)cc3O)c12 [Example 184]	–	–	–	–	–	–	–	–	–	–	–	5 (Growth inhibition rate; 91 to 100%)	–	4 (Growth inhibition rate; 71 to 90%)	–	5 (Growth inhibition rate; 91 to 100%)	–	0 (Growth inhibition rate; 0 to 10%)	–	0 (Growth inhibition rate; 0 to 10%)
CCCS(=O)(=O)Oc1cc(Cl)nnc1Oc1ccccc1C1CC1 [Example 360]	–	–	–	–	–	–	–	–	–	–	5 (Growth inhibition rate; 91 to 100%)	5 (Growth inhibition rate; 91 to 100%)	5 (Growth inhibition rate; 91 to 100%)	5 (Growth inhibition rate; 91 to 100%)	5 (Growth inhibition rate; 91 to 100%)	5 (Growth inhibition rate; 91 to 100%)	3 (Growth inhibition rate; 51 to 70%)	4 (Growth inhibition rate; 71 to 90%)	0 (Growth inhibition rate; 0 to 10%)	0 (Growth inhibition rate; 0 to 10%)
CCOc1cccc(C2CC2)c1Oc1nnc(Cl)cc1O [Example 277]	–	–	–	–	–	–	–	–	–	–	5 (Growth inhibition rate; 91 to 100%)	5 (Growth inhibition rate; 91 to 100%)	–	5 (Growth inhibition rate; 91 to 100%)	5 (Growth inhibition rate; 91 to 100%)	5 (Growth inhibition rate; 91 to 100%)	0 (Growth inhibition rate; 0 to 10%)	1 (Growth inhibition rate; 11 to 30%)	0 (Growth inhibition rate; 0 to 10%)	0 (Growth inhibition rate; 0 to 10%)
CC1COc2cccc(Oc3nnc(Cl)cc3O)c21 (stereo not shown) [Example 182]	–	–	–	–	–	–	–	–	–	–	–	5 (Growth inhibition rate; 91 to 100%)	–	4 (Growth inhibition rate; 71 to 90%)	–	5 (Growth inhibition rate; 91 to 100%)	–	2 (Growth inhibition rate; 31 to 50%)	–	0 (Growth inhibition rate; 0 to 10%)
